# Results: US20210379068A1, “METHODS AND MATERIALS FOR TREATING NEUROPSYCHIATRIC DISORDERS” (Mayo Foundation for Medical Education and Research, priority 2018, published 2021)
# Entries after “also recorded” stand apart in the source; their conditions may differ.
# Columns and labels:
# Format in all cases: in vivo, mouse
# HFD-fed INK-ATTAC mice [1] = assay: Open field test, chow/HFD INK-ATTAC mice treated with AP20187
# Protocol: (§1) INK-ATTAC mice were injected intraperitoneally (i.p.) with AP20187 (10 mg/kg) or vehicle for 3 days every 2 weeks for a total of 8-10 weeks.
# Locomotor activity and anxiety-like behavior of mice were assessed in sound-insulated, rectangular activity chambers (Med Associates Inc., St Albans, Vt., USA: W×L×D=27 cm×27 cm×20 cm with continually running fans, infrared lasers, and sensors). Beam breaks were assessed in 2-minute bins over 30 minutes, converted automatically to current mouse location and distance travelled (cm), and recorded on a computer with Med-PC software Version 4.0. Before the test, mice were acclimatized to the room for 1-1.5 hours before being introduced into the chambers. Mice were habituated for 5 minutes in the Open Field chamber (without recording) then placed for another 5 minutes in the home cage. Afterwards, mice were introduced back to the chambers and all mouse movements were recorded for 30 minutes. Anxiety was quantified by the distance mice travelled in the central 25% of the chamber (zone 1) as a function of the total distance mice travelled and by frequencies of entries into zone 1.
# HFD-fed INK-ATTAC mice [2] = assay: Elevated plus maze, chow/HFD INK-ATTAC mice treated with AP20187; conditions: INK-ATTAC mice on HFD; AP20187 10 mg/kg i.p. vs vehicle
# Protocol: as §1
# A grey colored elevated plus maze apparatus was used. Two open arms (25×5 cm) and two closed arms (25×5 cm) were attached at right angles to a central platform (5×5 cm). The apparatus was set 40 cm above the floor. Mice were first acclimatized to the room for 1-1.5 hours. Mice were then placed individually on the central platform with their back to one of the open arms. Before the test, mice were habituated for 1 minute to the maze, then placed back in the home cage for 5 minutes. Mice were tested for 5 minutes during which they could freely explore the apparatus. Tracking software (Ethovision) recognizes mouse head, central body point, and the base of the tail. Anxiety was quantified by frequency of and time spent during head pokes/dips toward open arms. Higher anxiety is indicated by a lower frequency of movement into open arms and less time spent there.
# SASP factors = assay: Circulating cytokines in blood plasma, INK-ATTAC mice on HFD; conditions: HFD-fed INK-ATTAC mice; AP vs vehicle
# Protocol: as §1
# Serum levels of cytokines: Eotaxin, G-Csf, Tnf-α, Il-6, Ifn-γ, Il-1α, Il-1β, Il-17, Il-2, Kc/Cxcl1, Mcp-1, M-Csf, Mig, Mip-1α, and Mip-1β were determined using a Multiplexing LASER Bead Assay (Mouse Cytokine Array/Chemokine Array 31-Plex (MD31), Eve Technologies; Canada). Blood was withdrawn from mice by punctuation of the sub-mandibular vein at the day of dissection before an animal was sacrificed. 50 μL of serum were shipped to Eve Technologies on dry ice. Due to high variability of data an unbiased elimination of outliers was performed using ROUT's method (Graphpad 7 Prism). The same panel was used to detect SASP in MAF and 50 μl of media was shipped to Eve Technologies on dry ice.
# INK-ATTAC mice = assay: Stone's T-maze, INK-ATTAC mice treated with AP20187; conditions: chow/HFD INK-ATTAC mice; AP20187 vs vehicle
# Protocol: as §1
# A water-motivated version of the Stone's T-maze was used to measure parameters of cognition. A straight run (for pre-training) or Stone's T-maze were placed into a steel pan filled with water to a depth of approximately 3 cm so that half the height of the interior walls of the maze were under water. The ceilings of both the straight run and maze were covered with clear acrylic to prevent mice from rearing out of the water. These dimensions created a situation that enables the mice to maintain contact with the floor while keeping their heads above water. The mice were placed into a start box and were pushed into the maze using a sliding panel. At the end of the straight run or maze there was a goal box that contains a ramp to a dry floor, which allows the mice to escape from the water upon successful completion of the straight run or maze. On day one, mice underwent straight run training to establish the concept that moving forward allows them to escape the water by reaching a water-free goal box. Successful completion of this phase requires the mice to reach the goal box in 10 seconds or faster in 8 out of 10 trials. […] Maze training commenced the following day. Mice had to complete 9 maze acquisition trials in a single day. […]
# [3] = INK-ATTAC mice on HFD, AP20187 10 mg/kg i.p. 3 days every 2 weeks, 8-10 weeks, vs vehicle
compound,measurement,setting,value
CC[C@H](C(=O)N1CCCC[C@H]1C(=O)O[C@H](CCc1ccc(OC)c(OC)c1)c1cccc(OCC(=O)NCC(CNC(=O)COc2cccc([C@@H](CCc3ccc(OC)c(OC)c3)OC(=O)[C@@H]3CCCCN3C(=O)[C@@H](CC)c3cc(OC)c(OC)c(OC)c3)c2)CN(C)C)c1)c1cc(OC)c(OC)c(OC)c1 [AP],"anxiety-like behavior: distance travelled in the central zone (as function of total distance), open field",HFD-fed INK-ATTAC mice [1]; [3],alleviated; also recorded: reduced HFD-induced anxiety-like behavior
same,"anxiety-like behavior: entries into the central zone, open field",HFD-fed INK-ATTAC mice [1]; [3],alleviated; also recorded: reduced HFD-induced anxiety-like behavior
same,"total distance travelled, open field","HFD-fed INK-ATTAC mice [1]; INK-ATTAC mice, AP20187 10 mg/kg i.p. vs vehicle",did not affect
same,"open field parameters (central distance, entries) in chow-fed mice","HFD-fed INK-ATTAC mice [1]; chow-fed INK-ATTAC mice, AP20187 10 mg/kg i.p. vs vehicle",did not affect
same,"anxiety-like phenotype: frequency of head entries/pokes into the open arms, EPM",HFD-fed INK-ATTAC mice [2],increased; also recorded: significantly decreased the anxiety-like phenotype
same,"time mice spent with their heads in open area, EPM",HFD-fed INK-ATTAC mice [2],increased
same,G-Csf in the bloodstream,SASP factors,down-regulated
same,Il-1β in the bloodstream,SASP factors,down-regulated
same,Kc/Cxcl1 in the bloodstream,SASP factors,down-regulated
same,Mcp-1 in the bloodstream,SASP factors,down-regulated
same,Mig in the bloodstream,SASP factors,down-regulated
same,Tnf-α in the bloodstream,SASP factors,down-regulated
same,"short-term memory (Stone's maze: time to finish, frequency of errors)",INK-ATTAC mice,not affected; also recorded: not altered
